In general, Ki refers to a measure of affinity in units of concentration, obtained from inhibition or displacement.

The experiment has as its target T1, 5-hydroxytryptamine receptor 1A (Homo sapiens, UniProt P08908).
T1 sequence (P08908 whole entry): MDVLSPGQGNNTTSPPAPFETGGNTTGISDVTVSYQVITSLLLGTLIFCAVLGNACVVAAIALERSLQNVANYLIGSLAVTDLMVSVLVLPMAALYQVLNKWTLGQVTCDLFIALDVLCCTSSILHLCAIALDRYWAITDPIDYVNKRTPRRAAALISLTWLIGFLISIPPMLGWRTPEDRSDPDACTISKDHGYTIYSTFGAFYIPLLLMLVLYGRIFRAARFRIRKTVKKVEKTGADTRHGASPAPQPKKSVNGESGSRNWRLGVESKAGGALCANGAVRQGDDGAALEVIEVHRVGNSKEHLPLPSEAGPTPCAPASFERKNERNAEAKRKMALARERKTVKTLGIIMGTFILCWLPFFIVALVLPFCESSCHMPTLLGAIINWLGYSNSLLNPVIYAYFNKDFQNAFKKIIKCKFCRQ

With `O=C1c2ccccc2S(=O)(=O)N1CCCCN1CCN(c2ncccn2)CC1` [1,1-Dioxo-2-[4-(4-pyrimidin-2-yl-piperazin-1-yl)-butyl]-1,2-dihydro-1lambda*6*-benzo[d]isothiazol-3-one], the Ki stood at 130 nM.

These data come from BindingDB's records for doi:10.1021/bi00180a024 (Medical University of South Carolina, 1994).
